Structures can show the parent of a compound that is named as a salt.
Experiments:
herpes viruses = details: particularly against herpes viruses, in words; cited from earlier work
[1] = system: Herpes Simplex Virus (HSV 1); test: HSV 1 plaque reduction assay in monolayers of Vero cells; assay type: cell-based; details: HSV 1, Vero cells, 50% inhibitory concentration
Description: Herpes Simplex Virus (HSV 1) was assayed in monolayers of Vero cells in multiwell trays. Activity of compounds was determined in the plaque reduction assay, in which a cell monolayer was infected with a suspension of HSV 1, and then overlaid with nutrient agarose in the form of a gel to ensure that there was no spread of virus throughout the culture. A range of concentrations of compound of known molarity was incorporated in the nutrient agarose overlay. Plaque numbers at each concentration were expressed as percentages of the control and a dose-response curve was drawn. From this curve the 50% inhibitory concentration (IC50) was estimated.

[2] = in words; cited from earlier work

Compound | antiviral activity (herpes viruses) | IC50 [1] [nM] | absorption from the gastrointestinal tract after oral administration [2]
Nc1nc2c(ncn2COCCO)c(=O)[nH]1 [Acyclovir, 9-(2-Hydroxyethoxymethyl)guanine] | potent antiviral activity | 80 to 100 | only poorly absorbed
CC[C@H](C)[C@H](N)C(=O)OCCOCn1cnc2c(=O)[nH]c(N)nc21 [Example 1, 2-(2-Amino-1,6-dihydro-6-oxo-9H(purin-9-yl)methoxy)ethyl L-isoleucinate hydrochloride] | – | 3800 | –

From patent publication US5061708A, “Therapeutic guanine esters” (priority 1987, dated 1991)
